Reference: patent US20140274688A1, “MOLECULES HAVING CERTAIN PESTICIDAL UTILITIES, AND INTERMEDIATES, COMPOSITIONS, AND PROCESSES RELATED THERETO” (DOW AGROSCIENCES LLC, priority 2013, published 2014)
Like-named read-outs stand apart in the source and are kept apart here.

Experiments:
[1] = system: Cabbage Looper (Trichoplusia ni) ("CL"); assay: Bioassay on Cabbage Looper (CL), 128-well diet tray assay, percent mortality; format: in vivo; conditions: for CL rating (percent mortality class): Cabbage Looper, 128-well diet tray assay; for pest or weed control at 50 µg/cm2: Trichoplusia ni, read-out: CL
How it was run: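 Larvae held in covered diet trays at 25 °C, 14:10 light-dark, for five to seven days. Percent mortality scored per well and averaged over eight wells.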

[2] = system: Yellow Fever Mosquito "YFM" (Aedes aegypti); conditions: for YFM rating (mortality class): Yellow Fever Mosquito larvae, 96-well plates; for YFM: rating of mortality, Yellow Fever Mosquito
[3] = system: Beet Armyworm (Spodoptera exigua) ("BAW"); assay: Bioassay on Beet Armyworm (BAW), 128-well diet tray assay, percent mortality; format: in vivo; conditions: for BAW rating (percent mortality class): Beet Armyworm, 128-well diet tray assay; for pest or weed control at 50 µg/cm2: Spodoptera exigua, read-out: BAW
How it was run: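 Larvae in covered diet trays held at 25 °C, 14:10 light-dark, for five to seven days. Percent mortality scored per well and averaged over eight wells per treatment.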

Structure (SMILES) | CL rating (percent mortality class) [1] | YFM rating (mortality class) [2] | BAW rating (percent mortality class) [3] | pest or weed control at 50 µg/cm2 [1] [%] | YFM ([2]; Table ABC (P)) | pest or weed control at 50 µg/cm2 [3] [%] | YFM ([2]; Table ABC (PC))
Cc1ccc(C(C)C)c(N2C(=O)CS/C2=N\C(=O)NCCc2ccc(-c3ncn(-c4ccc(OC(F)(F)C(F)(F)F)cc4)n3)cc2)c1 [F9, (Z)-1-(3-(2-isopropyl-5-methylphenyl)-4-oxothiazolidin-2-ylidene)-3-(4-(1-(4-(perfluoroethoxy)phenyl)-1H-1,2,4-triazol-3-yl)phenethyl)urea] | A (50-100) | A (80-100) | A (50-100) | – | – | – | –
CC(C)c1ccccc1NC(=S)NC(=O)NCc1ccc(-c2ncn(-c3ccc(OC(F)(F)F)cc3)n2)cc1 [F14, N-[2-(propan-2-yl)phenyl]-N′-(4-{1-[4-(trifluoromethoxy)phenyl]-1H-1,2,4-triazol-3-yl}benzyl)dicarbonimidothioic diamide] | A (50-100) | A (80-100) | A (50-100) | – | – | – | –
Cc1ccc(C(C)C)c(N2C(=O)CS/C2=N\C(=O)NCCCc2ccc(-c3ncn(-c4ccc(OC(F)(F)F)cc4)n3)cc2)c1 [F20, (Z)-1-(3-(2-isopropyl-5-methylphenyl)-4-oxothiazolidin-2-ylidene)-3-(3-(4-(1-(4-(trifluoromethoxy)phenyl)-1H-1,2,4-triazol-3-yl)phenyl)propyl)urea] | A (50-100) | A (80-100) | A (50-100) | – | – | – | –
Cc1ccc(C(C)C)c(NC(=S)NC(=O)NCCCc2ccc(-c3ncn(-c4ccc(OC(F)(F)F)cc4)n3)cc2)c1 [F21, 1-[(2-isopropyl-5-methyl-phenyl)carbamothioyl]-3-[3-[4-[1-[4-(trifluoromethoxy)phenyl]-1,2,4-triazol-3-yl]phenyl]propyl]urea] | A (50-100) | A (80-100) | A (50-100) | – | – | – | –
CC(C)c1ccccc1N1C(=O)CS/C1=N\C(=O)NC1CC1c1ccc(-c2ncn(-c3ccc(OC(F)(F)F)cc3)n2)cc1 (stereo not drawn) [F29, (Z)-1-(3-(2-isopropylphenyl)-4-oxothiazolidin-2-ylidene)-3-(2-(4-(1-(4-(trifluoromethoxy)phenyl)-1H-1,2,4-triazol-3-yl)phenyl)cyclopropyl)urea] | A (50-100) | A (80-100) | A (50-100) | – | – | – | –
Cc1ccc(N2C(=O)CS/C2=N\C(=O)NCCc2ccc(-c3ncn(-c4ccc(OC(F)(F)F)cc4)n3)cc2)c(C(C)C)c1 [P26, (Z)-1-(3-(2-isopropyl-4-methylphenyl)-4-oxothiazolidin-2-ylidene)-3-(4-(1-(4-(trifluoromethoxy)phenyl)-1H-1,2,4-triazol-3-yl)phenethyl)urea] | – | – | – | 50 to 100 | A (80-100) | 50 to 100 | –
Cc1cccc(N2C(=O)CS/C2=N\C(=O)NCCc2ccc(-c3ncn(-c4ccc(OC(F)(F)F)cc4)n3)cc2)c1C(C)C [P27, (Z)-1-(3-(2-isopropyl-3-methylphenyl)-4-oxothiazolidin-2-ylidene)-3-(4-(1-(4-(trifluoromethoxy)phenyl)-1H-1,2,4-triazol-3-yl)phenethyl)urea] | – | – | – | 50 to 100 | A (80-100) | 50 to 100 | –
CC(C)c1cc(F)ccc1N1C(=O)CS/C1=N\C(=O)NCCc1ccc(-c2ncn(-c3ccc(OC(F)(F)F)cc3)n2)cc1 [P28, (Z)-1-(3-(4-fluoro-2-isopropylphenyl)-4-oxothiazolidin-2-ylidene)-3-(4-(1-(4-(trifluoromethoxy)phenyl)-1H-1,2,4-triazol-3-yl)phenethyl)urea] | – | – | – | 50 to 100 | A (80-100) | 50 to 100 | –
CCCc1ccc(C)cc1N1C(=O)CS/C1=N\C(=O)NCCc1ccc(-c2ncn(-c3ccc(OC(F)(F)F)cc3)n2)cc1 [P29, (Z)-1-(3-(5-methyl-2-propylphenyl)-4-oxothiazolidin-2-ylidene)-3-(4-(1-(4-(trifluoromethoxy)phenyl)-1H-1,2,4-triazol-3-yl)phenethyl)urea] | – | – | – | 50 to 100 | A (80-100) | 50 to 100 | –
CC(C)(C)c1ccccc1N1C(=O)CS/C1=N\C(=O)NCCc1ccc(-c2ncn(-c3ccc(OC(F)(F)F)cc3)n2)cc1 [P30, (Z)-1-(3-(2-(tert-butyl)phenyl)-4-oxothiazolidin-2-ylidene)-3-(4-(1-(4-(trifluoromethoxy)phenyl)-1H-1,2,4-triazol-3-yl)phenethyl)urea] | – | – | – | 50 to 100 | A (80-100) | 50 to 100 | –
CCc1cc(C)ccc1N1C(=O)CS/C1=N\C(=O)NCCc1ccc(-c2ncn(-c3ccc(OC(F)(F)F)cc3)n2)cc1 [P31, (Z)-1-(3-(2-ethyl-4-methylphenyl)-4-oxothiazolidin-2-ylidene)-3-(4-(1-(4-(trifluoromethoxy)phenyl)-1H-1,2,4-triazol-3-yl)phenethyl)urea] | – | – | – | 50 to 100 | A (80-100) | 50 to 100 | –
CC(Cc1ccc(-c2ncn(-c3ccc(OC(F)(F)F)cc3)n2)cc1)NC(=O)/N=C1\SCC(=O)N1c1ccc(F)cc1C(C)C (stereo not drawn) [P33, (Z)-1-(3-(4-fluoro-2-isopropylphenyl)-4-oxothiazolidin-2-ylidene)-3-(1-(4-(1-(4-(trifluoromethoxy)phenyl)-1H-1,2,4-triazol-3-yl)phenyl)propan-2-yl)urea] | – | – | – | 50 to 100 | A (80-100) | 50 to 100 | –
CCc1cccc(C)c1N1C(=O)CS/C1=N\C(=O)NC(C)Cc1ccc(-c2ncn(-c3ccc(OC(F)(F)F)cc3)n2)cc1 (stereo not drawn) [P42, (Z)-1-(3-(2-ethyl-6-methylphenyl)-4-oxothiazolidin-2-ylidene)-3-(1-(4-(1-(4-(trifluoromethoxy)phenyl)-1H-1,2,4-triazol-3-yl)phenyl)propan-2-yl)urea] | – | – | – | 50 to 100 | A (80-100) | 50 to 100 | –
COc1ccc(N2C(=O)CS/C2=N\C(=O)NCCc2ccc(-c3ncn(-c4ccc(OC(F)(F)F)cc4)n3)cc2)c(C)c1 [P44, (Z)-1-(3-(4-methoxy-2-methylphenyl)-4-oxothiazolidin-2-ylidene)-3-(4-(1-(4-(trifluoromethoxy)phenyl)-1H-1,2,4-triazol-3-yl)phenethyl)urea] | – | – | – | 50 to 100 | A (80-100) | 50 to 100 | –
Cc1ccc(C(C)C)c(N2C(=O)CS/C2=N\C(=O)NCCCCc2cccc(-c3ncn(-c4ccc(OC(F)(F)F)cc4)n3)c2)c1 [P176, (Z)-1-(3-(2-isopropyl-5-methylphenyl)-4-oxothiazolidin-2-ylidene)-3-(4-(3-(1-(4-(trifluoromethoxy)phenyl)-1H-1,2,4-triazol-3-yl)phenyl)butyl)urea] | – | – | – | 50 to 100 | – | 50 to 100 | –
CC(C)c1cc(F)ccc1N1C(=O)CS/C1=N\C(=O)NCCCCc1cccc(-c2ncn(-c3ccc(OC(F)(F)F)cc3)n2)c1 [P181, (Z)-1-(3-(4-fluoro-2-isopropylphenyl)-4-oxothiazolidin-2-ylidene)-3-(4-(3-(1-(4-(trifluoromethoxy)phenyl)-1H-1,2,4-triazol-3-yl)phenyl)butyl)urea] | – | – | – | 50 to 100 | – | 50 to 100 | –
COc1ccc(C(C)C)c(N2C(=O)CS/C2=N\C(=O)NCCCCc2cccc(-c3ncn(-c4ccc(OC(F)(F)F)cc4)n3)c2)c1 [P182, (Z)-1-(3-(2-isopropyl-5-methoxyphenyl)-4-oxothiazolidin-2-ylidene)-3-(4-(3-(1-(4-(trifluoromethoxy)phenyl)-1H-1,2,4-triazol-3-yl)phenyl)butyl)urea] | – | – | – | 50 to 100 | – | 50 to 100 | –
CCC(CNC(=O)/N=C1\SCC(=O)N1c1ccccc1C(C)C)c1ccc(-c2ncn(-c3ccc(OC(F)(F)F)cc3)n2)cc1 (stereo not drawn) [P209, (Z)-1-(3-(2-isopropylphenyl)-4-oxothiazolidin-2-ylidene)-3-(2-(4-(1-(4-(trifluoromethoxy)phenyl)-1H-1,2,4-triazol-3-yl)phenyl)butyl)urea] | – | – | – | – | A (80-100) | 50 to 100 | –
CCC(CNC(=O)/N=C1\SCC(=O)N1c1cc(C)ccc1C(C)C)c1ccc(-c2ncn(-c3ccc(OC(F)(F)F)cc3)n2)cc1 (stereo not drawn) [P364, (Z)-1-(3-(2-isopropyl-5-methylphenyl)-4-oxothiazolidin-2-ylidene)-3-(2-(4-(1-(4-(trifluoromethoxy)phenyl)-1H-1,2,4-triazol-3-yl)phenyl)butyl)urea] | – | – | – | 50 to 100 | – | 50 to 100 | –
CCC(CNC(=O)/N=C1\SCC(=O)N1c1cc(OC)ccc1C(C)C)c1ccc(-c2ncn(-c3ccc(OC(F)(F)F)cc3)n2)cc1 (stereo not drawn) [P683, (Z)-1-(3-(2-isopropyl-5-methoxyphenyl)-4-oxothiazolidin-2-ylidene)-3-(2-(4-(1-(4-(trifluoromethoxy)phenyl)-1H-1,2,4-triazol-3-yl)phenyl)butyl)urea] | – | – | – | – | A (80-100) | 50 to 100 | –
CCCc1ccc(C)cc1NC(=S)NC(=O)NCCCCc1ccc(-c2ncn(-c3ccc(OC(F)(F)F)cc3)n2)cc1 [PC151, 1-[(5-methyl-2-propyl-phenyl)carbamothioyl]-3-[4-[4-[1-[4-(trifluoromethoxy)phenyl]-1,2,4-triazol-3-yl]phenyl]butyl]urea] | – | – | – | 50 to 100 | – | 50 to 100 | –
CCc1cccc(C)c1NC(=S)NC(=O)NCCCCc1ccc(-c2ncn(-c3ccc(OC(F)(F)F)cc3)n2)cc1 [PC153, 1-[(2-ethyl-6-methyl-phenyl)carbamothioyl]-3-[4-[4-[1-[4-(trifluoromethoxy)phenyl]-1,2,4-triazol-3-yl]phenyl]butyl]urea] | – | – | – | – | – | – | B (More than 0-Less than 80)
